The conditions of data set [1]: 298.15 K; 101.33 kPa; Liquid; Vibrating tube method.
Data set [2] is described as follows: excess molar enthalpy (molar enthalpy of mixing); xn = mol fraction of the nth substance listed. The conditions noted are these: 298.15 K, 101 kPa, Liquid, Calvet calorimetry.

Among the data in the NIST ThermoML archive (doi:10.1016/j.fluid.2013.01.011) are mass density and excess molar enthalpy values, retold here.

Numbers after ± are expanded uncertainties.

Take `CC(C)=O` [acetone]: the mass density in data set [1] was found to be 785.094 ± 0.13 kg/m3.
As for `CCCCNCCCC` [dibutylamine] + CCCC(C)=O, the excess molar enthalpy in data set [2] (x1 = 0.1111) stood at 0.0406 ± 0.000956 kcal/mol; in data set [2] (x1 = 0.2106), 0.0684 ± 0.00143 kcal/mol; in data set [2] (x1 = 0.3072), 0.0908 ± 0.00191 kcal/mol; in data set [2] (x1 = 0.3973), 0.102 ± 0.00215 kcal/mol; in data set [2] (x1 = 0.4942), 0.108 ± 0.00239 kcal/mol; in data set [2] (x1 = 0.6052), 0.104 ± 0.00239 kcal/mol. Besides, the values for the excess molar enthalpy in data set [2] (x1 = 0.6999), in data set [2] (x1 = 0.7881) and in data set [2] (x1 = 0.8848) were 0.0937 ± 0.00215 kcal/mol, 0.0762 ± 0.00167 kcal/mol and 0.0485 ± 0.0012 kcal/mol, respectively.
As for `CCCNCCC` [dipropylamine] + CCC(C)=O, the excess molar enthalpy in data set [2] (x1 = 0.1042) turned out to be 0.037 ± 0.000956 kcal/mol; in data set [2] (x1 = 0.1978), 0.0605 ± 0.00143 kcal/mol; in data set [2] (x1 = 0.3016), 0.0798 ± 0.00167 kcal/mol; in data set [2] (x1 = 0.3852), 0.0884 ± 0.00191 kcal/mol; in data set [2] (x1 = 0.495), 0.0949 ± 0.00215 kcal/mol; in data set [2] (x1 = 0.5459), 0.0946 ± 0.00215 kcal/mol. The excess molar enthalpy was determined as 0.0937 ± 0.00215 kcal/mol in data set [2] (x1 = 0.5908), 0.0851 ± 0.00191 kcal/mol in data set [2] (x1 = 0.6833), 0.0715 ± 0.00167 kcal/mol in data set [2] (x1 = 0.7647) and 0.0488 ± 0.0012 kcal/mol in data set [2] (x1 = 0.8559).
Take `CCCCNCCCC` [dibutylamine]: the mass density in data set [1] is listed as 755.528 ± 0.16 kg/m3.
As for `CCCNCCC` [dipropylamine], in data set [1], the mass density is given as 733.723 ± 0.25 kg/m3.
Turning to `CCCC(C)=O` [pentan-2-one], in data set [1], the mass density came to 801.522 ± 0.24 kg/m3.
Regarding `CCCNCCC` [dipropylamine] + CC(C)=O, the excess molar enthalpy in data set [2] (x1 = 0.1063) is 0.0652 ± 0.00143 kcal/mol; in data set [2] (x1 = 0.2076), 0.113 ± 0.00239 kcal/mol; in data set [2] (x1 = 0.3036), 0.14 ± 0.00311 kcal/mol; in data set [2] (x1 = 0.3982), 0.151 ± 0.00335 kcal/mol; in data set [2] (x1 = 0.4932), 0.153 ± 0.00335 kcal/mol; in data set [2] (x1 = 0.5821), 0.147 ± 0.00311 kcal/mol. Further, the results for the excess molar enthalpy in data set [2] (x1 = 0.6773), in data set [2] (x1 = 0.7652) and in data set [2] (x1 = 0.8488) were 0.129 ± 0.00287 kcal/mol, 0.104 ± 0.00215 kcal/mol and 0.0707 ± 0.00167 kcal/mol, respectively.
As for `CCCCNCCCC` [dibutylamine] + CCCCCC(C)=O, the excess molar enthalpy is 0.0206 ± 0.000478 kcal/mol in data set [2] (x1 = 0.1114); 0.0392 ± 0.000956 kcal/mol in data set [2] (x1 = 0.2189); 0.0519 ± 0.0012 kcal/mol in data set [2] (x1 = 0.3057); 0.0607 ± 0.00143 kcal/mol in data set [2] (x1 = 0.4038); 0.0664 ± 0.00143 kcal/mol in data set [2] (x1 = 0.5087); 0.0664 ± 0.00143 kcal/mol in data set [2] (x1 = 0.5962). Besides, the excess molar enthalpy in data set [2] (x1 = 0.7053) is 0.0612 ± 0.00143 kcal/mol; in data set [2] (x1 = 0.8017), 0.0497 ± 0.0012 kcal/mol; in data set [2] (x1 = 0.8891), 0.033 ± 0.000717 kcal/mol.
With `CCCNCCC` [dipropylamine] + CCCC(C)=O, the excess molar enthalpy in data set [2] (x1 = 0.1056) was 0.0208 ± 0.000478 kcal/mol; in data set [2] (x1 = 0.1981), 0.0368 ± 0.000956 kcal/mol; in data set [2] (x1 = 0.3098), 0.0519 ± 0.0012 kcal/mol; in data set [2] (x1 = 0.3988), 0.0621 ± 0.00143 kcal/mol; in data set [2] (x1 = 0.5023), 0.0672 ± 0.00143 kcal/mol; in data set [2] (x1 = 0.5922), 0.0679 ± 0.00143 kcal/mol. Besides, the excess molar enthalpy in data set [2] (x1 = 0.6821) is 0.0638 ± 0.00143 kcal/mol; in data set [2] (x1 = 0.781), 0.0545 ± 0.0012 kcal/mol; in data set [2] (x1 = 0.8693), 0.0382 ± 0.000956 kcal/mol.
As for `CCCNCCC` [dipropylamine] + CCCCCC(C)=O, the excess molar enthalpy stood at 0.0112 ± 0.000478 kcal/mol in data set [2] (x1 = 0.1145); 0.021 ± 0.000478 kcal/mol in data set [2] (x1 = 0.212); 0.0282 ± 0.000717 kcal/mol in data set [2] (x1 = 0.3072); 0.0342 ± 0.000717 kcal/mol in data set [2] (x1 = 0.4034); 0.0387 ± 0.000956 kcal/mol in data set [2] (x1 = 0.4993); 0.0406 ± 0.000956 kcal/mol in data set [2] (x1 = 0.6017). For the same compound, the excess molar enthalpy in data set [2] (x1 = 0.6872) amounted to 0.038 ± 0.000956 kcal/mol; in data set [2] (x1 = 0.7868), 0.0327 ± 0.000717 kcal/mol; in data set [2] (x1 = 0.8796), 0.0229 ± 0.000478 kcal/mol.
For the compound `CCCCNCCCC` [dibutylamine] + CC(C)=O, the excess molar enthalpy in data set [2] (x1 = 0.1101) came out at 0.106 ± 0.00239 kcal/mol; in data set [2] (x1 = 0.2103), 0.165 ± 0.00359 kcal/mol; in data set [2] (x1 = 0.2999) it was 0.204 ± 0.0043 kcal/mol; in data set [2] (x1 = 0.398) it was 0.22 ± 0.00478 kcal/mol; in data set [2] (x1 = 0.4977), 0.224 ± 0.00478 kcal/mol; in data set [2] (x1 = 0.6088), 0.206 ± 0.00454 kcal/mol. In addition, the excess molar enthalpy in data set [2] (x1 = 0.6999) stood at 0.181 ± 0.00382 kcal/mol; in data set [2] (x1 = 0.79), 0.143 ± 0.00311 kcal/mol; in data set [2] (x1 = 0.8913) it was 0.0827 ± 0.00191 kcal/mol.
Take `CCCCNCCCC` [dibutylamine] + CCC(C)=O: the excess molar enthalpy was 0.0655 ± 0.00143 kcal/mol in data set [2] (x1 = 0.1142); 0.102 ± 0.00215 kcal/mol in data set [2] (x1 = 0.2078); 0.128 ± 0.00287 kcal/mol in data set [2] (x1 = 0.2985); 0.144 ± 0.00311 kcal/mol in data set [2] (x1 = 0.3978); 0.148 ± 0.00311 kcal/mol in data set [2] (x1 = 0.4956); 0.142 ± 0.00311 kcal/mol in data set [2] (x1 = 0.6001). Besides, the excess molar enthalpy in data set [2] (x1 = 0.693) was 0.126 ± 0.00263 kcal/mol; in data set [2] (x1 = 0.7846), 0.0997 ± 0.00215 kcal/mol; in data set [2] (x1 = 0.8802) it was 0.0645 ± 0.00143 kcal/mol.
Consider `CCCCCC(C)=O` [2-heptanone], for which the mass density in data set [1] was 811.162 ± 0.24 kg/m3.
In the case of `CCC(C)=O` [butanone], the mass density in data set [1] was found to be 799.969 ± 0.15 kg/m3.
